Counter-ions that a name gives are not always drawn.
What was measured:
enkephalinase A = molecular target: T1, enkephalinase A (Rattus norvegicus, UniProt P07861); assay: Enkephalinase A inhibition, radiometric assay with 3H-Met5-ENK substrate and TLC separation; type: biochemical, Sprague-Dawley rats; details: enkephalinase A fraction from rat brain membranes; substrate 3H-Met5-ENK 40 nM; 90 minutes at 37°C; pH 7.4
T1 construct: from tissue; host or cells: rat brain (minus cerebellum), Triton X-100 solubilised membranes, DEAE Sephacel fraction
T1 sequence (P07861 1-750): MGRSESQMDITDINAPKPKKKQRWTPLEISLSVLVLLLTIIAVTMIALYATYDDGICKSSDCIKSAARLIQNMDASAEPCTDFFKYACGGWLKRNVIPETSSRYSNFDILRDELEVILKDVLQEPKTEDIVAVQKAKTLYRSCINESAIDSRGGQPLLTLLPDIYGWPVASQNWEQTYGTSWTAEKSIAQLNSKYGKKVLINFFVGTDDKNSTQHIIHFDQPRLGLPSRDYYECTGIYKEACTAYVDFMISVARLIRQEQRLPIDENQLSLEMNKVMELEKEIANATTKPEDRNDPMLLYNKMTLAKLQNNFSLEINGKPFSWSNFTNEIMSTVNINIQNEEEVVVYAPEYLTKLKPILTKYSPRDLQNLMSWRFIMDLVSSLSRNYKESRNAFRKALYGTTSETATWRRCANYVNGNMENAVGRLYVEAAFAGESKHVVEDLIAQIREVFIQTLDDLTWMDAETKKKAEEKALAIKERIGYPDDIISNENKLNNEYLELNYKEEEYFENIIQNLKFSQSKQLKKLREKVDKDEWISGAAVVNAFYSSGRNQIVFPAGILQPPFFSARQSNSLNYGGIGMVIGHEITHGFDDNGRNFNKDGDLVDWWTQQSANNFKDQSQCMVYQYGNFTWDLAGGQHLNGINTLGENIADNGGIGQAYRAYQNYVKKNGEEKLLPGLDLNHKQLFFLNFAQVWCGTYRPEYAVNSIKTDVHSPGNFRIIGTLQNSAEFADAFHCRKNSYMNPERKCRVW
Method: Enzyme activity was separated by taking the brain tissue (minus cerebellum) from Sprague-Dawley rats and homogenizing it in 30 volumes of 50 mM Tris buffer, pH 7.4, using a Brinkmann Polytron. The resulting homogenate is centrifuged at 50,000 x g for 15 minutes. The pellet, constituting the membrane bound enzyme material, was washed by resuspending it in Tris and re- centrifuging it 4 times.
Following washing, solubilization of the membrane pellet was achieved by incubating it for 45 minutes at 37 °C in the presence of 15 volumes (based on initial brain weight) of 50 mM Tris-l% Triton X-100 buffer, pH 7.4. After centrifugation at 100,000 x g for 60 minutes to remove non-solubilized material, the Triton soluble supernatant was layered on a 1.5 x 30 cm DEAE Sephacel column previously equilibrated with.50 mM Tris-0.1% Triton, pH 7.4. Material was eluted from the column using a 1 liter linear NaCl gradient running from 0.0 to 0.4 M. Effluent was collected in 7 ml fractions, each of which was assayed for enkephalin degrading activity.
Enkephalin degrading activity was monitored using a radiometric assay. The substrate was ^3H-Met5-ENK (50.1 Ci/mmol, New England Nuclear) diluted in 0.05 M Tris buffer, pH 7.4, such that the final reaction mixture concentration was 40 nM. Total reaction mixture volume including enzyme and substrate was 250 µl. Incubation was carried out for 90 minutes at 37°C. To stop the reaction, tubes were transferred to a boiling water bath for 15 minutes.
Assay products were separated form one another using thin layer chromatography. […] Total running time was approximately 17 hours. TLC tanks are gassed with nitrogen prior to starting the run. Following the run, markers are visualized with ninhydrin spray. These spots, along with remaining plate regions, are cut from the plate and the radioactivity corresponding to each monitored using liquid scintillation counting. IC50's are determined using linear regression techniques.

Male CF1 mice = assay: Potentiation of the analgesic effects of DAEAM, mouse tailflick test; type: in vivo; details: dose at which half the test animals displayed analgesia, DAEAM icv, tailflick latency 30 minutes after DAEAM, cut-off 10 seconds
Method: The following test procedure was utilized to assess the noted compounds' potentiation of the analgesic effects of (D-Ala^2-Met^5)-enkephalinamide (DAEAM).
Male CF1 mice (19-23 g) from Charles River Breeding Labs, Mass., were used (N=10/dose or dose combination). […] Tailflick latencies were re-determined 30 minutes later, as this has previously been determined to be the time of peak analgesia for DAEAM, and a cut-off of 10 seconds is employed.

With O=C(O)CCNC(=O)C(Cc1ccc(C(F)(F)F)cc1)CP(=O)(O)O (racemic) [R,S, -CF3, -CONH-, -(CH2)2-, -OH, N-[1-Oxo-2-phosphonomethyl-3-(4-trifluoromethyl)phenylpropyl]-β-alanine] the IC50 (enkephalinase A) was 60 nM.
In the case of CCOC(=O)CCNC(=O)[C@H](Cc1ccccc1)CP(=O)(O)O [S, -H, -CONH-, -(CH2)2-, -OC2H5, N-[(S)=1-Oxo-3-phenyl-2-(phostphonomethyl)propyl] -β-alanine ethyl ester calcium salt], the “Oral ED50, in mice” value (Male CF1 mice) is reported as 2.5 mg/kg and the IC50 (enkephalinase A) is reported as 60 nM.
CCOC(=O)c1ccc(NC(=O)C(Cc2ccccc2)CP(=O)(O)O)cc1 (centres unmarked) [S, -H, -CONH-, p-C6H4-, -OC2H5, 4-[1-oxo-3-phenyl-2-(phosphonomethyl)propyl]aminobenzoic acid ethyl ester] was tested, and the IC50 (enkephalinase A) was 63 nM.
In the case of “3-[(S) -2- (Diethoxyphosphinyl) methyl -1-oxo-3 -nhenyl- propyl]amino-2-(R,S)-methylpropanoic acid calcium salt [S, -H, -CONH-, -CH2C^**H(CH3)-, -OH]”, the “Oral ED50, in mice” value (Male CF1 mice) is reported as 20 mg/kg and the IC50 (enkephalinase A) is reported as 25.5 nM.
In the case of O=C(O)CCCNC(=O)C(Cc1ccccc1)CP(=O)(O)O (centres unmarked) [S, -H, -CONH-, -(CH2)3-, -OH, 4-[1-oxo-3-phenyl-2-(phosphonomethyl)propyl]amino-butanoic acid], the IC50 (enkephalinase A) is reported as 80 nM.
CCOC(=O)CCNC(=O)C(Cc1ccc(C(F)(F)F)cc1)CP(=O)(O)O (racemic) [R,S, -CF3, -CONH-, -(CH2)2-, -OC2H5] was tested, and the IC50 (enkephalinase A) was 2200 nM.
With O=C(O)CCNC(=O)[C@@H](Cc1ccccc1)CP(=O)(O)O [R, -H, -CONH-, -(CH2)2-, -OH, N-[(R)-1-oxo-3-phenyl-2-)phosphonomethyl)propyl] -(β-alanine calcium salt] the IC50 (enkephalinase A) was 600 nM.
CC(OC(=O)NC(Cc1ccccc1)CP(=O)(O)O)C(=O)O [R,S, -H, -NHCOO-, -C^**H(CH3)-, -OH, 2-[2-phenyl-l-(phosphonomethyl)ethyl]aminocarbonyloxy-propanoic acid] was tested, and the IC50 (enkephalinase A) was 100 nM.
Work on O=C(CCNC(=O)[C@H](Cc1ccccc1)CP(=O)(O)O)OCCOc1ccccc1 [S, -H, -CONH-, -(CH2)2-, -O(CH2)2OC6H5, N-[(S)-1-Oxo-3-phenyl-2-(phosphonomethyl)propyl)-β-alanine 2-phenoxyethyl ester] yielded an IC50 (enkephalinase A) of 210 nM.
“N-L(S)-1-Oxo-3-phenyl-2-(phosphonomethyl)propyl]-β-alanine calcium salt [S, -H, -CONH-, -(CH2)2-, -OH]” was tested, and the “Oral ED50, in mice” value (Male CF1 mice) was 3 mg/kg and the IC50 (enkephalinase A) was 19 nM.
In the case of O=C(O)CCNC(=O)[C@H](Cc1ccc(Cl)cc1)CP(=O)(O)O [S, -Cl, -CONH-, -(CH2)2-, -OH, N-[3-(a-chloro)phenyl-1-oxo-2-(phosphonomethyl)propyl]-B-alanine], the “Oral ED50, in mice” value (Male CF1 mice) is reported as 25 mg/kg and the IC50 (enkephalinase A) is reported as 11 nM.
Work on O=C(O)C(O)CNC(=O)C(Cc1ccccc1)CP(=O)(O)O (centres unmarked) [S, -H, -CONH-, -CH2C^***H(OH)-, -OH, 3-[1-Oxo-3-phenyl-2-(phosphonomethyl)propyl]amino-2-hydroxypropanoic Acid] yielded an IC50 (enkephalinase A) of 25 nM.
O=C(O)CCNC(=O)C(Cc1ccc(-c2ccccc2)cc1)CP(=O)(O)O (racemic) [R,S, -C6H5, -CONH-, -(CH2)2-, -OH, N-[(R,S)-3-(1,1'-Biphenyl-4-yl)-1-oxo-2-(phosphonomethyl)-propyl]-β-alanine] gave an IC50 (enkephalinase A) of 1.3 nM.

Reference: EP0117429A1, “Phosphorous containing compounds as inhibitors of enkephalinases” (SCHERING CORPORATION, priority 1983, dated 1984)
